Laboratory results taken from ChEMBL document CHEMBL4229431, “Discovery of novel selective GPR120 agonists with potent anti-diabetic activity by hybrid design” (Bioorg Med Chem Lett, 2018).
pEC50: −log10 of the molar value. Activity calls are given as the source filed them. No cut-off for these calls is given here.

Columns and labels:
[1] = molecular target: T1, Free fatty acid receptor 4 (Homo sapiens) (UniProt Q5NUL3); experiment: Agonist activity at human GPR120 expressed in CHO cells assessed as increase in intracellular calcium level at 1 uM by Fluo-4-AM dye based assay; type: functional, cell-based
T1 sequence (whole entry): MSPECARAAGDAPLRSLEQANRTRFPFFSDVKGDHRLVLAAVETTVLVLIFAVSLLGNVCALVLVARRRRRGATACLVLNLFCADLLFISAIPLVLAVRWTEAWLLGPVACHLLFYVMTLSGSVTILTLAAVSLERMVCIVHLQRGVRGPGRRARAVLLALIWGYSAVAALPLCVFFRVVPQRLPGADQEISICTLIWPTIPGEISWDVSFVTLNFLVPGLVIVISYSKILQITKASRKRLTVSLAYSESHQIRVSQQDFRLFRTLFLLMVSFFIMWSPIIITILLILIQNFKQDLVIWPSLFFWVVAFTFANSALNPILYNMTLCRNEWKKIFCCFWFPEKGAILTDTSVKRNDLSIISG

[2] = molecular target: Free fatty acid receptor 1 (Homo sapiens, UniProt O14842); experiment: Agonist activity at human GPR40 expressed in CHO cells assessed as increase in intracellular calcium level by Fluo-4-AM dye based assay; type: functional, cell-based
[3] = molecular target: T2, Free fatty acid receptor 4 (Homo sapiens, UniProt Q5NUL3); experiment: Agonist activity at human GPR120 expressed in CHO cells assessed as increase in intracellular calcium level by Fluo-4-AM dye based assay; type: functional, cell-based
T2 sequence (Q5NUL3 whole entry): T1 sequence (whole entry)

Homo sapiens = organism: Homo sapiens; experiment: Selectivity ratio of EC50 for agonist activity at human GPR40 expressed in CHO cells to EC50 for agonist activity at human GPR120 expressed in CHO cells; type: cell-based
Mus musculus [4] = experiment: Hypoglycemic activity in ICR mouse assessed as reduction in blood glucose level pretreated orally for 60 mins followed by glucose challenge measured up to 120 mins by OGTT; type: functional, organism-based
[5] = molecular target: T2, Free fatty acid receptor 4; experiment: Agonist activity at human GPR120; type: functional
Mus musculus [6] = experiment: Hypoglycemic activity in ICR mouse assessed as reduction in blood glucose level at 10 mg/kg, po pretreated for 60 mins followed by glucose challenge measured up to 120 mins by OGTT; type: functional, organism-based

Chain of Free fatty acid receptor 1 (O14842 whole entry): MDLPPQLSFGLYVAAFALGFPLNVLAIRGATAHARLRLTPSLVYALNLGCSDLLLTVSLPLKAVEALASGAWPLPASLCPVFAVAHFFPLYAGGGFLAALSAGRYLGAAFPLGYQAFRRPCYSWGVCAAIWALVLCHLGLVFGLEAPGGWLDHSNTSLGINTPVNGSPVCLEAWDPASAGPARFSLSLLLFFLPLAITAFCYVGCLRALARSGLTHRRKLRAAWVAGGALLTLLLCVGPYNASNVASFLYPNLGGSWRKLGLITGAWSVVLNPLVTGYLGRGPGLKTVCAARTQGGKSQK

| Compound | Activity [1] | pEC50 [2] | pEC50 [3] | other results |
| --- | --- | --- | --- | --- |
| O=C(O)CCCOc1c(F)cc(-c2cc(OC3CCOCC3)cc(F)c2F)cc1F |  | < 4.00 | 5.56 |  |
| CO[C@H]1C[C@H](Oc2cc(F)c(F)c(-c3cc(F)c(OCCC(C)(C)C(=O)O)c(F)c3)c2)C1 |  | < 4.00 | 5.30 |  |
| COc1cc(F)c(F)c(-c2cc(F)c(OCCCC(=O)O)c(F)c2)c1 |  | 4.61 | 7.16 | Ratio EC50 (Homo sapiens): 354 |
| CO[C@H]1C[C@H](Oc2cc(F)c(F)c(-c3cc(F)c(SCCCC(=O)O)c(F)c3)c2)C1 |  | < 4.00 | 6.46 |  |
| CC(C)Nc1ccccc1-c1cc(F)c(OCCCC(=O)O)c(F)c1 |  | < 4.00 | 5.83 | pEC50 [5]: 5.70 to 6.70 |
| CO[C@H]1C[C@H](Oc2cc(F)c(F)c(-c3cc(F)c(S(=O)(=O)CCCC(=O)O)c(F)c3)c2)C1 | inactive |  |  |  |
| CO[C@H]1C[C@H](Oc2cc(F)c(F)c(-c3cc(F)c(OCCCC(=O)NS(=O)(=O)c4ccccc4)c(F)c3)c2)C1 | inactive |  |  |  |
| Cc1c(COc2cc(F)c(F)c(-c3cc(F)c(OCCCC(=O)O)c(F)c3)c2)cccc1-c1ccccc1 | inactive |  |  |  |
| CO[C@H]1C[C@H](Oc2cc(F)c(F)c(-c3ccc4c(c3)CC[C@H](CCC(=O)O)O4)c2)C1 |  | < 4.00 | 6.33 | Activity (Mus musculus [6]): Active |

More lines, main results first:

| Activity [1] | pEC50 [2] | pEC50 [3] | Compound | other results |
| --- | --- | --- | --- | --- |
| inactive |  |  | CO[C@H]1C[C@H](Oc2cc(F)c(F)c(-c3cc(F)c(OCC(=O)O)c(F)c3)c2)C1 |  |
|  | 4.53 | 5.83 | CO[C@H]1C[C@H](Oc2ccc([N+](=O)[O-])c(-c3cc(F)c(OCCCC(=O)O)c(F)c3)c2)C1 | Ratio EC50 (Homo sapiens): 20 |
|  | < 4.00 | 7.03 | CO[C@H]1C[C@H](Oc2cc(F)c(F)c(-c3cc(F)c(OCCCC(=O)O)c(F)c3)c2)C1 | Activity (Mus musculus [4]): Dose-dependent effect |
| inactive |  |  | CO[C@H]1C[C@H](Oc2cc(F)c(F)c(-c3cc(F)c(OCCCC(=O)OCCNC(C)=O)c(F)c3)c2)C1 |  |
|  | < 4.00 | 6.06 | CO[C@H]1C[C@H](Oc2cc(F)c(F)c(-c3cc(C)c(OCCCC(=O)O)c(C)c3)c2)C1 |  |
|  | 4.16 | 6.73 | CO[C@H]1C[C@H](Oc2cc(F)c(F)c(-c3cc(F)c(OCCCCC(=O)O)c(F)c3)c2)C1 | Ratio EC50 (Homo sapiens): 370 |
|  | 5.46 | < 4.00 | CO[C@H]1C[C@H](Oc2cc(F)c(F)c(-c3cc(F)c(OCCCCCCC(=O)O)c(F)c3)c2)C1 |  |
|  | 5.46 | 4.62 | CO[C@H]1C[C@H](Oc2cc(F)c(F)c(-c3cc(F)c(OCCCCCCCC(=O)O)c(F)c3)c2)C1 | Ratio EC50 (Homo sapiens): < 1 |
|  | 4.96 | 6.20 | CO[C@H]1C[C@H](Oc2cc(F)c(F)c(-c3cc(F)c(OCCCCCC(=O)O)c(F)c3)c2)C1 | Ratio EC50 (Homo sapiens): 17 |
|  | < 4.00 | 6.66 | CO[C@H]1C[C@H](Oc2cc3c(c(-c4cc(F)c(OCCCC(=O)O)c(F)c4)c2)OCO3)C1 |  |
| inactive |  |  | COc1cc(-c2cc(O[C@H]3C[C@H](OC)C3)cc(F)c2F)cc(OC)c1OCCCC(=O)O |  |
| inactive |  |  | CO[C@H]1C[C@H](Oc2cc(F)c(F)c(-c3cc(F)c(OCCCC(=O)NS(C)(=O)=O)c(F)c3)c2)C1 |  |
